The source of these data is PubChem BioAssay (NCI).

Test systems include HCT-15 colon; HOP-62 NSCLC; MCF7 breast; PC-3 prostate; RXF 393 renal; SF-295 CNS; SK-MEL-2 melanoma; SK-OV-3 ovarian; TK-10 renal; UACC-257 melanoma.
Common to all, as to assay: inhibition of tumour cell growth, NCI panel, 48 h

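Growth conditions: 96-well plates. Treatment: test compound, 48 hours, 5 concentrations. Analysis: linear interpolation between bracketing concentrations; unreached endpoints set to highest concentration. The concentration for 50% growth inhibition is given as GI50. TGI is the concentration that stops growth completely.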

With `C[C@@H]1Cc2c(ccc3[nH]ncc23)[C@@H](c2ccc(NC3CN(CCCF)C3)cn2)N1CC(F)(F)F`, the GI50 in the assay with HCT-15 colon is 16.7 µM; with HOP-62 NSCLC, 15.3 µM; with MCF7 breast, less than 0.01 µM; with PC-3 prostate, 15.6 µM; with RXF 393 renal, 6.8 µM; in the assay on SF-295 CNS, 18 µM. The GI50 in the assay with SK-MEL-2 melanoma was 19 µM; in the assay on SK-OV-3 ovarian, 14.3 µM; in the assay with TK-10 renal, 17.9 µM; in the assay with UACC-257 melanoma, 17.9 µM. The TGI is 35 µM in the assay with HCT-15 colon; 34.8 µM in the assay on HOP-62 NSCLC; 16.1 µM in the assay with MCF7 breast; 47.8 µM with PC-3 prostate; 22.9 µM with RXF 393 renal; 36.9 µM with SF-295 CNS. Moreover, the TGI in the assay on SK-MEL-2 melanoma was 42.9 µM; in the assay on SK-OV-3 ovarian it was 37.1 µM; in the assay on TK-10 renal, 44.7 µM; in the assay on UACC-257 melanoma, 38.3 µM.
`CN(C)Cc1cc(C(C)(C)C)cc(CN(C)C)c1O`: the TGI with HCT-15 colon, in the assay on HOP-62 NSCLC, in the assay on MCF7 breast, with PC-3 prostate, in the assay with RXF 393 renal and with SF-295 CNS was greater than 100 µM throughout. For the same compound, the TGI with SK-MEL-2 melanoma, with SK-OV-3 ovarian, in the assay on TK-10 renal and with UACC-257 melanoma was greater than 100 µM each time.
Regarding `CSc1nc2ccc(C)cc2cc1/C=C1/C=C(c2ccccc2)NC1=O`, the GI50 in the assay with HCT-15 colon is 14 µM; in the assay with HOP-62 NSCLC it was 2.42 µM; in the assay on MCF7 breast it was 12.5 µM; with PC-3 prostate, 5.32 µM; in the assay on RXF 393 renal it was 3.06 µM; with SF-295 CNS, 1.44 µM. Besides, the GI50 is 6.31 µM in the assay on SK-MEL-2 melanoma, 4.83 µM in the assay on SK-OV-3 ovarian, 2.63 µM with TK-10 renal and 94.6 µM in the assay with UACC-257 melanoma. Also, the TGI in the assay with HCT-15 colon is greater than 100 µM; with HOP-62 NSCLC, 11.7 µM; in the assay on MCF7 breast, greater than 100 µM; in the assay with PC-3 prostate, greater than 100 µM; in the assay on SF-295 CNS, 15 µM; in the assay with SK-MEL-2 melanoma it was 30.4 µM. For the same compound, the TGI was greater than 100 µM in the assay on SK-OV-3 ovarian, 8.46 µM in the assay on TK-10 renal and greater than 100 µM with UACC-257 melanoma.
For `COC(=O)c1cc(C)[nH]c2c(C)cc3nc4ccccc4c3c12`, the GI50 in the assay on HCT-15 colon was 5.19 µM; in the assay on HOP-62 NSCLC it was 12.4 µM; in the assay with MCF7 breast, 8.01 µM; with PC-3 prostate, 4.86 µM; in the assay with RXF 393 renal, 11.6 µM; in the assay on SF-295 CNS, 3.41 µM. Further, the GI50 in the assay on SK-MEL-2 melanoma was 13.2 µM; in the assay with SK-OV-3 ovarian, 13.4 µM; with TK-10 renal, 5.73 µM; with UACC-257 melanoma, 16.1 µM. Besides, the TGI with HCT-15 colon came out at 22.2 µM; in the assay on HOP-62 NSCLC, 25.1 µM; with MCF7 breast, 22.8 µM; in the assay on PC-3 prostate, 18.8 µM; with RXF 393 renal it was 25 µM; in the assay with SF-295 CNS it was 14.1 µM. The TGI with SK-MEL-2 melanoma came out at 28.8 µM; with SK-OV-3 ovarian it was 26.5 µM; with TK-10 renal, 19.5 µM; with UACC-257 melanoma it was 30 µM.
For `COc1cc2c(=O)n(CC3CCCCC3)c3c4cc[nH]c4ncc3c2cc1OC`, the GI50 is 1.69 µM in the assay on HCT-15 colon; 2.54 µM with HOP-62 NSCLC; 0.64 µM with MCF7 breast; 2.23 µM in the assay on PC-3 prostate; 0.407 µM in the assay on RXF 393 renal; 2.18 µM with SF-295 CNS. In addition, the GI50 with SK-MEL-2 melanoma is 8.69 µM; with SK-OV-3 ovarian, 4.36 µM; with TK-10 renal it was 4.66 µM; in the assay with UACC-257 melanoma, 23.8 µM. Moreover, the TGI in the assay with HCT-15 colon was greater than 50 µM; in the assay with HOP-62 NSCLC, 11.2 µM; in the assay on MCF7 breast, greater than 50 µM; in the assay with PC-3 prostate, 12.2 µM; with RXF 393 renal it was 5.55 µM; with SF-295 CNS, 10.7 µM. Further, the TGI in the assay with SK-MEL-2 melanoma is 41.7 µM; in the assay with SK-OV-3 ovarian, 24.2 µM; with TK-10 renal, 18.9 µM; in the assay on UACC-257 melanoma it was greater than 50 µM.
Consider `CCCCCCCCc1cc(O)ccc1O`, for which the GI50 with HCT-15 colon is 16.4 µM; in the assay with HOP-62 NSCLC, 25.5 µM; in the assay with MCF7 breast it was 24.8 µM; in the assay on PC-3 prostate it was 16 µM; in the assay on RXF 393 renal it was 10.7 µM; with SF-295 CNS, 20.7 µM. Also, the GI50 in the assay with SK-MEL-2 melanoma was 13 µM; in the assay on SK-OV-3 ovarian it was 34.8 µM; in the assay on TK-10 renal, 1.46 µM; with UACC-257 melanoma, 18.6 µM. Further, the TGI in the assay on HCT-15 colon was 38 µM; with HOP-62 NSCLC, 60.6 µM; in the assay with MCF7 breast, 66.8 µM; in the assay on PC-3 prostate it was 37.3 µM; with RXF 393 renal, 24.9 µM; in the assay on SF-295 CNS, 49 µM. Also, the TGI is 30.8 µM with SK-MEL-2 melanoma, greater than 100 µM in the assay on SK-OV-3 ovarian, 22.7 µM in the assay with TK-10 renal and 56.7 µM with UACC-257 melanoma.
As for `C=C(CN1CCN(c2ccc(F)c(Cl)c2)CC1)c1ccc(C(=O)Nc2ccccc2N)cc1`, the GI50 was 5.38 µM in the assay on HCT-15 colon; 3.09 µM with HOP-62 NSCLC; 5.17 µM in the assay on MCF7 breast; 2.34 µM in the assay on PC-3 prostate; 3.84 µM with RXF 393 renal; 6.95 µM in the assay with SF-295 CNS. Also, the GI50 with SK-MEL-2 melanoma was 6.12 µM; with SK-OV-3 ovarian it was greater than 100 µM; in the assay with TK-10 renal it was 18.2 µM; in the assay on UACC-257 melanoma, 13.9 µM. In addition, the TGI was greater than 100 µM with HCT-15 colon; 16.4 µM with HOP-62 NSCLC; greater than 100 µM in the assay with MCF7 breast; 9.23 µM in the assay with PC-3 prostate; 39.2 µM in the assay on RXF 393 renal; greater than 100 µM with SF-295 CNS. Also, the TGI in the assay on SK-MEL-2 melanoma is 64 µM; with SK-OV-3 ovarian it was greater than 100 µM; in the assay on TK-10 renal it was 97.5 µM; with UACC-257 melanoma it was 47.3 µM.
For `O=C1CC2OCC=C3CN4CCC5(C(=O)O)C(N1)C2C3CC45` (stereo unspecified), the TGI with HCT-15 colon, in the assay with HOP-62 NSCLC, with MCF7 breast, with PC-3 prostate, in the assay on RXF 393 renal and in the assay with SF-295 CNS was greater than 100 µM in each case. In addition, the TGI in the assay with SK-MEL-2 melanoma, in the assay on SK-OV-3 ovarian, with TK-10 renal and in the assay with UACC-257 melanoma was greater than 100 µM throughout.
As for `O=S(=O)(Nc1ccc(Cl)c(Cl)c1)c1ccc(-c2cnc(C3CC3)o2)cc1`, the GI50 is 0.405 µM in the assay with HCT-15 colon; 0.524 µM with HOP-62 NSCLC; 0.289 µM in the assay on MCF7 breast; 0.474 µM with PC-3 prostate; 0.376 µM in the assay with RXF 393 renal; 0.337 µM in the assay with SF-295 CNS. For the same compound, the GI50 is 2.43 µM with SK-MEL-2 melanoma, 0.713 µM in the assay on SK-OV-3 ovarian, 10.3 µM with TK-10 renal and 4.62 µM with UACC-257 melanoma. The TGI was 15.7 µM in the assay on HCT-15 colon; 16.7 µM in the assay with HOP-62 NSCLC; 18.3 µM in the assay with MCF7 breast; 14.5 µM with PC-3 prostate; 8.44 µM with RXF 393 renal; 11.4 µM in the assay on SF-295 CNS. Also, the TGI in the assay on SK-MEL-2 melanoma was 24.4 µM; in the assay with SK-OV-3 ovarian it was 39.7 µM; in the assay with TK-10 renal, 36.1 µM; with UACC-257 melanoma, 27.1 µM.
As to `Cc1c(C2CCSc3ccccc3N2)sc2ccccc12` (stereo unspecified), the TGI in the assay on HCT-15 colon, in the assay on HOP-62 NSCLC, in the assay with MCF7 breast, in the assay on PC-3 prostate, with RXF 393 renal and with SF-295 CNS was greater than 100 µM throughout. The TGI in the assay with SK-MEL-2 melanoma, in the assay with SK-OV-3 ovarian, with TK-10 renal and in the assay on UACC-257 melanoma was greater than 100 µM throughout.
Take `CCOC(=O)N(O)c1ccc(/C=C/c2ccccc2)cc1`: the GI50 with HCT-15 colon is 9.18 µM; with HOP-62 NSCLC, 7.45 µM; in the assay on MCF7 breast, 0.341 µM; with PC-3 prostate, 8.23 µM; with RXF 393 renal it was 13.2 µM; in the assay on SF-295 CNS, 2.45 µM. Also, the GI50 in the assay on SK-MEL-2 melanoma is 8.62 µM; with SK-OV-3 ovarian, 23.6 µM; in the assay on TK-10 renal, 2 µM; with UACC-257 melanoma, 0.421 µM. Besides, the TGI in the assay with HCT-15 colon was 37.4 µM; in the assay on HOP-62 NSCLC, greater than 59 µM; with MCF7 breast, 14.6 µM; in the assay on PC-3 prostate, greater than 100 µM; in the assay with RXF 393 renal, greater than 90.4 µM; in the assay with SF-295 CNS it was 22.1 µM. The TGI was 28.6 µM in the assay on SK-MEL-2 melanoma, greater than 100 µM with SK-OV-3 ovarian, 6.75 µM in the assay on TK-10 renal and 2.49 µM with UACC-257 melanoma.
On to `C[C@H]1CCC2C(OC(=O)[C@@H]2CN(C)C)[C@]2(C)C(=O)C=CC12O` (stereo partly specified), for which the TGI was 45.6 µM in the assay with HOP-62 NSCLC; 24.5 µM in the assay with MCF7 breast; 44.9 µM in the assay with PC-3 prostate; 4.72 µM in the assay with RXF 393 renal; 31.1 µM in the assay on SF-295 CNS; greater than 54.4 µM in the assay on SK-MEL-2 melanoma. Further, the values for the TGI in the assay on SK-OV-3 ovarian, in the assay on TK-10 renal and in the assay on UACC-257 melanoma were 38.6 µM, 18.4 µM and 23.6 µM, respectively.
Take `C[C@@H](C[C@H](CCO)c1ccccc1)c1ccc2ccccc2c1`: the GI50 in the assay on HCT-15 colon was 1.5 µM; in the assay on HOP-62 NSCLC, 1.52 µM; with MCF7 breast it was 1.97 µM; in the assay with PC-3 prostate, 1.39 µM; in the assay on RXF 393 renal, 1.45 µM; in the assay on SF-295 CNS, 1.72 µM. Moreover, the GI50 with SK-MEL-2 melanoma was 1.52 µM; in the assay with SK-OV-3 ovarian, 1.7 µM; in the assay with TK-10 renal it was 1.62 µM. For the same compound, the TGI stood at 2.91 µM with HCT-15 colon; 2.99 µM in the assay with HOP-62 NSCLC; 4.04 µM with MCF7 breast; 2.72 µM in the assay on PC-3 prostate; 2.91 µM in the assay on RXF 393 renal; 3.19 µM in the assay on SF-295 CNS. The TGI stood at 3.02 µM with SK-MEL-2 melanoma, 3.1 µM with SK-OV-3 ovarian and 3.12 µM in the assay on TK-10 renal.
